Literature values as cited in US10874098B2, “Organ preservation composition” (TX Innovations B.V., priority 2015, dated 2020).

Tests used:
[1] = tested on: lung ischemia-reperfusion injury after lung transplantation; settings: intraperitoneal treatment of the donor animal three days before harvesting

Row | Compound | stability in aqueous solutions | preservation of the transplanted lung [1]
1 | L-alanine-L-glutamine | more stable in aqueous solutions and does not spontaneously degrade | –
2 | C[C@H](N)C(=O)O [L-alanine] | spontaneously degrade | –
3 | NCCS(=O)(=O)O [taurine] | – | preservation of the transplanted lung in respect to histopathological and biochemical findings
